Data: article PMC13242511, “Disrupting Notch signalling by a small molecule inhibiting dihydroorotate dehydrogenase activity” (Scientific Reports, 2026)
“And” between values parts separate entries of the source, which are not always exact repeats. Equal entries are not always repeated. Where two headings read alike, the source gives them in different places.

Key:
Notch signalling = test: Notch reporter assay (12xCSL firefly luciferase / renilla luciferase, HEK293T Notch1ΔE reporter cell line clone #A1-11); type: cell-based; parameters: AUC Notch: scale not given here; details: for Bottom (Emax): Emax indicated independent from assay constraints, in % (unit assumed); for AUC Notch: area under the 14-point dose-response curve
Excerpt: To identify novel Notch inhibitors in an unbiased manner, we generated a novel Notch reporter construct, which records the level of Notch signalling immediately downstream of receptor activation rather than further downstream in the signalling cascade, for example at the level of Hes and Hey proteins (Fig. 1B). […] The reporter construct carries piggy-bac sequences at both ends of the promoter-reporter cassette as well as cSH4 insulator elements to reduce transcriptional noise[21] and was transfected into HEK293T cells. To achieve a robust level of Notch receptor activity in the HEK293T reporter cell line and to confine the search for inhibitors to compounds affecting the receptor function and eliminating the need for ligand activation, a truncated ligand-independent version of the Notch1 receptor, mimicking an S2-cleaved Notch1 receptor (Notch1ΔE) and spontaneously activated by S3-cleavage[22] (Fig. 1C) was introduced into the cell line carrying the reporter construct (Fig. 1D). In addition, an HSV-TK-renilla luciferase plasmid was introduced into the cell line as an internal control for normalisation of the reporter expression (Fig. 1D).
A de novo Notch reporter construct, composed of six dimeric CSL binding sites linked to a basic b-globin promoter and followed by a firefly luciferase gene and a PEST degradation domain was synthesised (GeneArt). The construct was stably introduced into HEK293T cells, and zeocin (0.1 mg/ml) or Puromycin (0.05 mg/ml (ThermoFisher, cat #R25001, #A1113803) were used as selection markers. A clonal cell line (clone #A1) with robust renilla expression and enhanced firefly luciferase expression upon transient transfection of Notch1 ICD or Notch1ΔE constructs was selected, and a UB6 promoter-Notch1DE construct was stably introduced into this cell line using Blasticidin (0.1 mg/ml; ThermoFisher, cat #A1113903) as a selection marker. Stable cell lines were generated by serial dilution and only clonal colonies were selected for further evaluation. To measure luciferase reporter activity, cells were washed in cold PBS, detached, and collected in pre-warmed cell culture medium and centrifugated for five min at 200xg. The cell pellet was resuspended in medium, cells were counted, and 4,000 cells were seeded in each well of a white 384 well plate (Corning #3670) in 20 µl medium containing either DMSO or the GSI DAPT (N-[N-(3,5-Difluorophenacetyl)-L-alanyl]-S-phenylglycine t-butyl ester, Sigma-Aldrich, cat #565784-M) and incubated for 24 h. The efficacy of the reporter gene system was determined by monitoring the level of luciferase activation in the absence or presence of different amounts of DAPT in several cell clones. Luciferase activity was assessed using the dual-GLO luciferase detection kit from Promega (cat # E2920), following the manufacturer’s instructions. A minimum of two technical replicates were measured per clone using a SpectraMaxi3 plate reader (Molecular Devices). Reporter activity of different clones and in response to DAPT was assessed by normalising firefly (Notch activity) to renilla luciferase signals. Normalised signals of individual clones cultivated in DMSO were then compared to corresponding signals generated with DAPT-treated cells. The cell clone with the strongest signal to control ratio (DMSO to DAPT) was then selected for further exploration (clone #A1-11).
37,966 compounds were spotted by the compound center at SciLifeLab (https://www.scilifelab.se/) on a total of 120 plates (Greiner #781080) at a fixed concentration of 10 µM and the screening process spanned five consecutive sessions. The layout of each plate contained one column for DMSO and one for DAPT controls to determine the quality and reliability of the data. DAPT controls were spotted at 10 µM and DMSO was spotted in an equimolar volume. In addition, plates spotted with only DMSO were utilized to investigate the impact of plate effects before and after each session. […]

γ-secretase complex = γ-secretase complex (Homo sapiens, UniProt P49768); test: APP-C99 counter assay (GSI reporter assay); type: cell-based; parameters: AUC APP: scale not given here; details: for AUC APP: area under the 14-point dose-response curve, replicates averaged
Procedure: To this end, we used a previously established reporter gene-based GSI assay (APP-C99) (Fig. 3A), which measures γ-secretase activity through cleavage of amyloid precursor protein (APP), another protein processed by the γ-secretase complex[24]
Plasmids for APP and luciferase are described in[24] and the renilla plasmid described above generated for this project was used to normalize firefly values. 24 h post transfection cells were seeded on compound plates and cells were cultivated for 24 h before luciferase signals were read, as described.
Two-fold concentrations of compounds were diluted in 10 µl cell culture medium and brought to one-fold by seeding 10 µl containing 4000 cells of the respective cell type on each well of a 384-well plate, as described above. Analogous to the previous assays, all plates contained one DMSO and DAPT control column with the Notch reporter cell line (#A1-11) and a DMSO only and Notch inhibitor control plate was read before the measuring the screening plates. In addition, DAPT and DMSO were spotted in a dose response fashion, and a minimum of four replicates were read. Dose-responses of compounds were recorded in triplicates for each concentration reading out the dual luciferase reporters, as described above. Dose response assays were read together in one session. To measure compound effects, the different assays dose–response curves were fitted using the log(inhibitor) vs. response – Variable slope (model: Y = Bottom + (Top–Bottom)/(1 + 10^((LogIC50-X)*HillSlope)) equation.
A DMSO plate was read before measuring luciferase activity of compound spotted plates. APP firefly luciferase reporter assays were read with a signal integration time of 0.1 s, instead of 0.5 s used for the Notch reporter to reduce signal overlap between wells. […] The area-under-the-curve (AUC) was calculated on dose–response curves using Graphpad Prism.

[1] = 9p dose response, AUCs averaged when replicates available
[2] = 9p dose response, log10 of averaged IC50
[3] = 14p dose response, AUCs averaged when replicates available
[4] = overview in comparison to compound C, Supplemental Fig. 9
[5] = Homo sapiens, HEK-293T, 14p Notch assay DR, bottom constrained to Emax of positive control DAPT, read-out: approximated IC50
[6] = Homo sapiens, HEK-293T, 14p Notch assay DR, log10 value, bottom constrained to Emax of positive control DAPT, read-out: approximated LogIC50 (converted)
[7] = 14p APP assay DR, bottom constrained to Emax of positive control LY-411575

NC(=O)[C@@H](CC1CC1)[C@@H](CCC(F)(F)F)C(=O)N[C@H]1N=C(c2ccccc2)c2cccc(F)c2NC1=O [BMS-983970, reference compound]
IC50 (Notch signalling; 9p dose response, single replicates, read-out: approximated IC50s 9p Notch reporter assay): 1.2 nM
AUC 9p Notch reporter assay (Notch signalling; [1]): 2.16E+02
IC50 (Notch signalling; 9p dose response, averaged over replicates, read-out: 9p Notch reporter assay averaged IC50s): 1.2 nM
9p Notch reporter assay averaged IC50s (log) (Notch signalling; [2]): -8.9
IC50 (Notch signalling; 14-point, unit inferred, replicates averaged, read-out: approxiated IC50s 14p Notch reporter assay): 3.6 nM
Bottom (Emax) (Notch signalling; 14p Notch assay DR): 49.6 and 50.5 and 62.5
IC50 (Notch signalling; 14p Notch assay DR, Notch inhibitor controls, no bottom constraint named, read-out: approximated IC50): 3.6 nM and ~2.3 nM
IC50 (Notch signalling; 14p Notch assay DR, averaged when replicate measurements were available, read-out: averaged IC50s): 3.6 nM
approximated LogIC50 [M] (Notch signalling; 14p Notch assay DR, log10 value, Notch inhibitor controls, no bottom constraint named): -8.5 M
IC50 (Notch signalling; 14p dose response, single replicates, read-out: approximated IC50s 14p Notch reporter assay): 3.6 nM and 3.5 nM
AUC 14p Notch reporter assay (Notch signalling; [3]): 4.10E+02
IC50 (Notch signalling; 14p dose response, averaged over replicates, read-out: 14p Notch reporter assay averaged IC50s): 3.6 nM
14p Notch reporter assay averaged IC50s (log) (Notch signalling; 14p dose response, log10 of averaged IC50): -8.4
AUC Notch (Notch signalling; replicates averaged): 410.0
Notch assay (Notch signalling; [4]): higher potency
Hill-Slope 9p APP counter assay averaged (γ-secretase complex; 9p dose response): -1.6
AUC 9p APP-counter assay (γ-secretase complex; [1]): 2.41E+02
IC50 (γ-secretase complex; 9p dose response, averaged, read-out: 9p APP counter assay averaged IC50s): 22 nM
9p APP counter assay averaged IC50s (log) (γ-secretase complex; [2]): -7.7
IC50 (γ-secretase complex; 9p dose response, read-out: approximated IC50s 9p APP counter assay): 22 nM
IC50 (γ-secretase complex; 14-point, unit inferred, some fits outside of tested concentration range, read-out: approximated IC50s 14p APP-counter assay): 400 nM
Bottom (Emax) (γ-secretase complex; 14p APP assay DR, Emax indicated independent from assay constraints): 45.9 and 48.3
IC50 (γ-secretase complex; 14p APP assay DR, Notch inhibitor controls, no bottom constraint named, read-out: approximated IC50): 44 nM and 70 nM
AUC. 14p APP-counter assay (γ-secretase complex; [3]): 4.87E+02
IC50 (γ-secretase complex; 14p dose response, averaged over replicates, read-out: 14p APP counter assay averaged IC50s): 57 nM
AUC APP (γ-secretase complex): 486.6
APP assay (γ-secretase complex; [4]): higher potency

Cc1cc(O)n(-c2nc3ccccc3s2)n1 [CBK007453]
Bottom (Emax) (Notch signalling; 14p Notch assay DR): 95.0
IC50 (Notch signalling; Homo sapiens, HEK-293T, 14-point dose-response, Fig. 4, read-out: approximated IC50, Notch reporter assay): > 40000 nM
IC50 (Notch signalling; [5]): > 40000 nM
IC50 (Notch signalling; [6]): > 40000 nM
AUC Notch (Notch signalling; replicates averaged): 628.0
Hill-slope (γ-secretase complex; [7]): -0.00928
AUC APP (γ-secretase complex): 674.5

Oc1cc(-c2ccccc2)nn1-c1nc2ccccc2s1 [CBK016481]
approximated IC50, Notch reporter assay (Notch signalling; 14-point dose-response, Fig. 4): Indeterminate
Bottom (Emax) (Notch signalling; 14p Notch assay DR): 98.5
AUC Notch (Notch signalling; replicates averaged): 626.0
Hill-slope (γ-secretase complex; [7]): 0.00215
AUC APP (γ-secretase complex): 668.5

COC(=O)c1cccc(N2C(=O)c3ccc(Oc4cccc(NC(C)=O)c4)cc3C2=O)c1 [CBK033640]
Bottom (Emax) (Notch signalling; 14p Notch assay DR): 91.5
AUC Notch (Notch signalling; replicates averaged): 399.0
Hill-slope (γ-secretase complex; [7]): 0.0705
AUC APP (γ-secretase complex): 553.6

COc1cc(Nc2nc(-c3ccc(F)c(Cl)c3)cn3ccnc23)cc(OC)c1OC [CBK037275]
Bottom (Emax) (Notch signalling; 14p Notch assay DR): 90.9
AUC Notch (Notch signalling; replicates averaged): 361.0
Hill-slope (γ-secretase complex; [7]): -0.9
AUC APP (γ-secretase complex): 479.3

CC(=O)Nc1cccc(-c2cn3ccnc3c(Nc3cccc(OC(F)(F)C(F)F)c3)n2)c1 [CBK037499]
Bottom (Emax) (Notch signalling; 14p Notch assay DR): 77.1
IC50 (Notch signalling; [5]): > 40000 nM
IC50 (Notch signalling; [6]): > 40000 nM
AUC Notch (Notch signalling; replicates averaged): 348.0
Hill-slope (γ-secretase complex; [7]): 0.0127
AUC APP (γ-secretase complex): 508.5

O=C(O)c1ccccc1C(=O)N1CCC2(CC1)OCCc1c2[nH]c2ccccc12 [CBK046981]
Hill-slope (γ-secretase complex; [7]): -0.0365

O=C(O)c1cc(Cl)c(Cl)cc1C(=O)N1CCC2(CC1)OCCc1c2[nH]c2ccccc12 [CBK047019]
Hill-slope (γ-secretase complex; [7]): -0.0304

COc1ccc2[nH]c3c(c2c1)CCOC31CCN(C(=O)c2cccc3cccc(C(=O)O)c23)CC1 [CBK047020]
Hill-slope (γ-secretase complex; [7]): 20.5

O=C(O)c1cccc2cccc(C(=O)N3CCC4(CC3)OCCc3c4[nH]c4ccccc34)c12 [CBK047027]
Hill-slope (γ-secretase complex; [7]): -0.9

COc1ccc2[nH]c3c(c2c1)CCOC31CCN(C(=O)c2ccccc2C(=O)O)CC1 [CBK047213]
Hill-slope (γ-secretase complex; [7]): -8.4

COc1ccc(-c2cn3ccnc3c(Nc3cc(OC)c(OC)c(OC)c3)n2)cc1OC [CBK066261]
Hill-slope (γ-secretase complex; [7]): 0.0544

COc1cc(Nc2nc(-c3ccccc3)cn3ccnc23)cc(OC)c1OC [CBK066345]
Hill-slope (γ-secretase complex; [7]): 0.0472

CC(c1nc(N)nc(Nc2ccccc2)n1)N1CCC(NC(=O)c2ccccc2)CC1 (centres unmarked) [CBK233672]
Hill-slope (γ-secretase complex; [7]): 0.274

COc1ccc2cc(C(=O)N3Cc4cn(CCO)nc4C3)n(C)c2c1 [CBK306707]
Hill-slope (γ-secretase complex; [7]): 0.423

CCn1ccc(CN(CCOC)C(=O)c2cc3c(Cl)cccc3[nH]2)n1 [CBK306903]
Hill-slope (γ-secretase complex; [7]): 3.84e-13
curve fit information (γ-secretase complex; [7]): IC50 indeterminate

O=C(O)c1cccc(-c2noc(-c3ccccc3F)n2)c1 [PTC-124, reference compound]
signal reduced by (Notch signalling; luciferase inhibitor controls in three-dose regimen (1.25, 10 and 25 µM), Supplemental Fig. 2G): 83%
